Experimental findings from ChEMBL document CHEMBL2069259, “Preclinical strategy to reduce clinical hepatotoxicity using in vitro bioactivation data for >200 compounds” (Chem Res Toxicol, 2012) are described below.

For this series, the system named is Liver microsomes. Briefly: Metabolic stability in human liver microsomes assessed as GSH adduct formation at 100 uM after 90 mins by HPLC-MS analysis. The conditions noted are these: 1.5 h. On the technique in general: Liver microsomes are a subcellular fraction often used to study metabolism.

For `CCN(CC)Cc1cc(Nc2ccnc3cc(Cl)ccc23)ccc1O.Cl`, the Stability result is given as “Unstable”. As to `Oc1ncnc2[nH]ncc12` [ALLOPURINOL], the Stability entry is “Stable”. Next, `CCCCC[C@H](O)/C=C/[C@H]1[C@H](O)CC(=O)[C@@H]1CCCCCCC(=O)O` [ALPROSTADIL]: “Stable”; `CC[C@H]1OC(=O)[C@H](C)[C@@H](O[C@H]2C[C@@](C)(OC)[C@@H](O)[C@H](C)O2)[C@H](C)[C@@H](O[C@@H]2O[C@H](C)C[C@H](N(C)C)[C@H]2O)[C@](C)(O)C[C@@H](C)CN(C)[C@H](C)[C@@H](O)[C@]1(C)O` [AZITHROMYCIN]: “Stable”; `C[C@H]1C[C@H]2[C@@H]3CCC4=CC(=O)C=C[C@]4(C)[C@@]3(Cl)[C@@H](O)C[C@]2(C)[C@@]1(O)C(=O)CO` [BECLOMETHASONE]: “Stable”. Next, `CCCC1O[C@@H]2C[C@H]3[C@@H]4CCC5=CC(=O)C=C[C@]5(C)[C@H]4[C@@H](O)C[C@]3(C)[C@]2(C(=O)CO)O1` (some centres undefined) [BUDESONIDE]: “Stable”; `Cn1c(=O)c2c(ncn2C)n(C)c1=O` [CAFFEINE]: “Stable”; `CCN1CCN(C(=O)N[C@@H](C(=O)N[C@@H]2C(=O)N3C(C(=O)O)=C(CSc4nnnn4C)CS[C@H]23)c2ccc(O)cc2)C(=O)C1=O` [CEFOPERAZONE]: “Stable”.

`CC(C)(O/N=C(\C(=O)N[C@@H]1C(=O)N2C(C(=O)[O-])=C(C[n+]3ccccc3)CS[C@H]12)c1csc(N)n1)C(=O)O` [CEFTAZIDIME]: the Stability result is reported as “Stable”. Next, `CCN(CC)CCCC(C)Nc1ccnc2cc(Cl)ccc12` (centres undefined) [CHLOROQUINE]: “Stable”; `CN(C)CCCN1c2ccccc2Sc2ccc(Cl)cc21` [CHLORPROMAZINE]: “Stable”; `CCCNC(=O)NS(=O)(=O)c1ccc(Cl)cc1` [CHLORPROPAMIDE]: “Stable”. As for `COc1cc(N)c(Cl)cc1C(=O)NC1CCN(CCCOc2ccc(F)cc2)CC1OC` (centres undefined) [CISAPRIDE], the Stability entry is “Stable”. Next, `CCOC(=O)C(C)(C)Oc1ccc(Cl)cc1` [CLOFIBRATE]: “Stable”. The value for `O=C(O)c1cc(=O)c2c(OCC(O)COc3cccc4oc(C(=O)O)cc(=O)c34)cccc2o1` [CROMOLYN] was “Stable”. The value for `Nc1ccn([C@@H]2O[C@H](CO)[C@@H](O)[C@@H]2O)c(=O)n1` [CYTARABINE] was “Stable”; that for `O=C1CN(/N=C/c2ccc(-c3ccc([N+](=O)[O-])cc3)o2)C(O)=N1` [DANTROLENE] was “Stable”. For `C[C@@H]1C[C@H]2[C@@H]3CCC4=CC(=O)C=C[C@]4(C)[C@@]3(F)[C@@H](O)C[C@]2(C)[C@@]1(O)C(=O)CO` [DEXAMETHASONE], the Stability entry is recorded as “Stable”.

Take `O=c1[nH]cnc2c1ncn2[C@H]1CC[C@@H](CO)O1` [DIDANOSINE]: the Stability result is on record as “Stable”. The value for `C[C@H]1O[C@@H](O[C@H]2[C@@H](O)C[C@H](O[C@H]3[C@@H](O)C[C@H](O[C@H]4CC[C@@]5(C)[C@H](CC[C@@H]6[C@@H]5C[C@@H](O)[C@]5(C)[C@@H](C7=CC(=O)OC7)CC[C@]65O)C4)O[C@@H]3C)O[C@@H]2C)C[C@H](O)[C@@H]1O` [DIGOXIN] was “Stable”; that for `COc1ccc([C@@H]2Sc3ccccc3N(CCN(C)C)C(=O)[C@@H]2OC(C)=O)cc1` [DILTIAZEM] was “Stable”; that for `CC[C@H]1OC(=O)[C@H](C)[C@@H](O[C@H]2C[C@@](C)(OC)[C@@H](O)[C@H](C)O2)[C@H](C)[C@@H](O[C@@H]2O[C@H](C)C[C@H](N(C)C)[C@H]2O)[C@](C)(O)C[C@@H](C)C(=O)[C@H](C)[C@@H](O)[C@]1(C)O` [ERYTHROMYCIN] was “Stable”. The value for `CC(O)(P(=O)(O)O)P(=O)(O)O` [ETIDRONIC ACID] was “Stable”; that for `NC(=O)OCC(COC(N)=O)c1ccccc1` [FELBAMATE] was “Stable”.
